Assay: xn = mol fraction of the nth substance listed
Settings: 100.5 kPa, Liquid

CCOC(=O)c1ccccc1O [ethyl 2-hydroxybenzoate] + CCO
Settings	mass density, 288.15 K [kg/m3]	mass density, 298.15 K [kg/m3]	mass density, 308.15 K [kg/m3]	mass density, 318.15 K [kg/m3]	viscosity, 288.15 K [mPa·s]	viscosity, 298.15 K [mPa·s]	viscosity, 308.15 K [mPa·s]	viscosity, 318.15 K [mPa·s]
x1 = 0.05	835.47	826.63	817.7	808.61	1.398	1.145	0.953	0.802
x1 = 0.1	871.02	862	852.86	843.56	1.467	1.197	0.998	0.836
x1 = 0.15	901.89	892.7	883.41	873.95	1.533	1.258	1.043	0.877
x1 = 0.2	928.98	919.64	910.21	900.63	1.615	1.322	1.094	0.915
x1 = 0.25	952.87	943.42	933.9	924.22	1.708	1.388	1.147	0.957
x1 = 0.3	974.13	964.62	955.01	945.25	1.8	1.455	1.198	0.999
x1 = 0.35	993.22	983.64	973.96	964.15	1.902	1.526	1.254	1.045
x1 = 0.4	1010.45	1000.81	991.08	981.22	2.001	1.598	1.313	1.093
x1 = 0.45	1026.08	1016.38	1006.61	996.72	2.104	1.677	1.373	1.141
x1 = 0.5	1040.36	1030.63	1020.8	1010.88	2.209	1.757	1.435	1.192
x1 = 0.55	1053.4	1043.63	1033.79	1023.85	2.317	1.838	1.498	1.242
x1 = 0.6	1065.37	1055.57	1045.7	1035.76	2.428	1.921	1.561	1.294
x1 = 0.65	1076.35	1066.53	1056.65	1046.7	2.543	2.006	1.627	1.347
x1 = 0.7	1086.51	1076.67	1066.79	1056.85	2.664	2.096	1.695	1.403
x1 = 0.75	1095.97	1086.12	1076.24	1066.31	2.8	2.187	1.766	1.463
x1 = 0.8	1104.72	1094.88	1085.02	1075.11	2.943	2.288	1.846	1.527
x1 = 0.85	1112.93	1103.09	1093.24	1083.37	3.1	2.398	1.932	1.596
x1 = 0.9	1120.61	1110.81	1101	1091.17	3.268	2.522	2.03	1.678
x1 = 0.95	1127.85	1118.07	1108.31	1098.55	3.503	2.706	2.163	1.781
x1 = 1	1134.72	1125	1115.29	1105.6	3.694	2.831	2.253	1.842

CCOC(=O)CC(C)C [ethyl 3-methylbutanoate] + CCO
viscosity [mPa·s], Capillary tube (Ostwald / Ubbelohde) method
Settings	288.15 K	298.15 K	308.15 K	318.15 K
x1 = 0.05	1.229	1.02	0.852	0.715
x1 = 0.1	1.125	0.945	0.793	0.668
x1 = 0.15	1.057	0.891	0.75	0.638
x1 = 0.2	1.002	0.848	0.718	0.618
x1 = 0.25	0.966	0.815	0.695	0.6
x1 = 0.3	0.935	0.791	0.677	0.587
x1 = 0.35	0.908	0.771	0.663	0.579
x1 = 0.4	0.886	0.754	0.653	0.571
x1 = 0.45	0.867	0.742	0.645	0.565
x1 = 0.5	0.855	0.733	0.638	0.559
x1 = 0.55	0.847	0.724	0.631	0.554
x1 = 0.6	0.84	0.719	0.624	0.55
x1 = 0.65	0.835	0.713	0.62	0.548
x1 = 0.7	0.83	0.713	0.618	0.547
x1 = 0.75	0.827	0.714	0.619	0.546
x1 = 0.8	0.83	0.716	0.621	0.549
x1 = 0.85	0.833	0.722	0.625	0.552
x1 = 0.9	0.839	0.727	0.631	0.556
x1 = 0.95	0.845	0.729	0.634	0.56
x1 = 1	0.853	0.739	0.642	0.566

mass density [kg/m3]
Settings	288.15 K	298.15 K	308.15 K	318.15 K
x1 = 0.05	802.64	793.85	784.95	775.9
x1 = 0.1	810.36	801.39	792.29	783.04
x1 = 0.15	817.13	807.99	798.73	789.31
x1 = 0.2	823.05	813.77	804.39	794.81
x1 = 0.25	828.3	818.9	809.39	799.73
x1 = 0.3	833.01	823.53	813.92	804.15
x1 = 0.35	837.23	827.65	817.96	808.12
x1 = 0.4	841.07	831.42	821.66	811.75
x1 = 0.45	844.57	834.87	825.05	815.07
x1 = 0.5	847.78	838.02	828.15	818.12
x1 = 0.55	850.72	840.93	831.01	820.95
x1 = 0.6	853.42	843.59	833.64	823.56
x1 = 0.65	855.93	846.06	836.09	826
x1 = 0.7	858.27	848.38	838.38	828.28
x1 = 0.75	860.46	850.55	840.55	830.44
x1 = 0.8	862.52	852.6	842.6	832.48
x1 = 0.85	864.44	854.52	844.51	834.44
x1 = 0.9	866.27	856.34	846.34	836.27
x1 = 0.95	868.03	858.12	848.15	838.1
x1 = 1	869.66	859.78	849.83	839.81

Source: the NIST ThermoML archive (doi:10.1021/je050402s)
